Active and inactive are the calls of the source. The rule behind the calls is not given here.
Assays:
[1] = target: T1, Histone-arginine methyltransferase CARM1 (Homo sapiens, UniProt Q86X55); experiment: Inhibition of PRMT4 (unknown origin) using histone H3 (21 to 44 residues) as substrate measured after 60 mins in presence of SAM by AlphaLisa assay
T1 sequence (Q86X55 whole entry): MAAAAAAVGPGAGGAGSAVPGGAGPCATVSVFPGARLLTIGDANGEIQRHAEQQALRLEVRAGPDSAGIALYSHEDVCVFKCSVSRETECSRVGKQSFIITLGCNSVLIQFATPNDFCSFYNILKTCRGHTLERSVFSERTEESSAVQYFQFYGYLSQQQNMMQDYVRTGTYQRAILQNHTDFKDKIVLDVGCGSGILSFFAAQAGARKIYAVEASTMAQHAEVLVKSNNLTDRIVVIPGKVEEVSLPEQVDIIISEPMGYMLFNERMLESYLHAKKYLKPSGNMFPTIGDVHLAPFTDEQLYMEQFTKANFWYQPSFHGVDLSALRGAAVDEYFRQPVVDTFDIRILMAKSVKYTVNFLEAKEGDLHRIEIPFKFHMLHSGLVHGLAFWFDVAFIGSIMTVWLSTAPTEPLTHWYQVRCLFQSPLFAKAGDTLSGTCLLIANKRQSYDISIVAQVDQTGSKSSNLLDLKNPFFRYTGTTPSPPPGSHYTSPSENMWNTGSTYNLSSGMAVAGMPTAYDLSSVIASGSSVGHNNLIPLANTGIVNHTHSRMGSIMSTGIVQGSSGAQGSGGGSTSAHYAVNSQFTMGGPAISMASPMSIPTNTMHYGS

[2] = target: Protein arginine N-methyltransferase 8 (Homo sapiens, UniProt Q9NR22); experiment: Inhibition of PRMT8 (unknown origin) preincubated for 15 mins followed by substrate addition and measured after 60 mins by AlphaLisa assay
[3] = target: Histone-lysine N-methyltransferase EZH2 (Homo sapiens) (UniProt Q15910); experiment: Inhibition of EZH2 (unknown origin) up to 50 uM preincubated for 10 mins followed by peptide substrate addition and measured after 4 hrs in presence of SAM by HTRF assay
[4] = target: Histone-lysine N-methyltransferase, H3 lysine-79 specific (Homo sapiens) (UniProt Q8TEK3); experiment: Inhibition of DOT1L (unknown origin) up to 50 uM preincubated for 15 mins followed by substrate addition and measured after 60 mins by AlphaLisa assay
MV4-11 = experiment: Antiproliferative activity against human MV4-11 cells measured after 6 days by CCK8/SRB assay; assay type: functional, cell-based
MOLM-13 [5] = experiment: Antiproliferative activity against human MOLM13 cells measured after 6 days by CCK8/SRB assay; conditions: MOLM-13, 144 h
MOLT-4 = experiment: Antiproliferative activity against human MOLT4 cells measured after 6 days by CCK8/SRB assay; assay type: functional, cell-based
[6] = Selectivity ratio of IC50 for antiproliferative activity against human MOLM13 cells to IC50 for inhibition of PRMT4 in human MOLM13 cells assessed as reduction in BAF155 dimethylation
[7] = Selectivity ratio of IC50 for antiproliferative activity against human MOLM13 cells to IC50 for inhibition of PRMT4 in human MOLM13 cells assessed as reduction in PABP1 dimethylation
MOLM-13 [8] = experiment: Cell cycle arrest in human MOLM13 cells assessed as increase in accumulation at G0/G1-phase measured after 72 hrs by propidium iodide staining-based flow cytometry; assay type: functional
[9] = Clearance in ICR mouse at 3 mg/kg, iv by mass spectrometric analysis; assay type: ADME, organism-based; conditions: in vivo
[10] = Half life in ICR mouse at 3 mg/kg, iv by mass spectrometric analysis; assay type: ADME, organism-based; conditions: in vivo
[11] = AUC (0 to infinity) in ICR mouse at 3 mg/kg, iv by mass spectrometric analysis; assay type: ADME, organism-based; design: dose 3 mg/kg, route intravenous, time infinity; conditions: in vivo
[12] = Tmax in ICR mouse at 10 mg/kg, po administered via gavage by mass spectrometric analysis; assay type: ADME, organism-based; conditions: in vivo
[13] = AUC (0 to last) in ICR mouse at 10 mg/kg, po administered via gavage by mass spectrometric analysis; assay type: ADME, organism-based; design: dose 10 mg/kg, route oral, time 0 - last; conditions: in vivo
[14] = Drug level in ICR mouse plasma at 10 mg/kg, po administered via gavage measured after 0.25 to 24 hrs by mass spectrometric analysis; assay type: ADME, organism-based; conditions: in vivo
MOLM-13 [15] = experiment: Antitumor activity against human MOLM13 cells xenografted in BALB/c nude mouse assessed as tumor growth inhibition at 100 mg/kg, po administered daily for 18 days measured 2 to 3 times a week by caliper method relative to control; assay type: functional; conditions: MOLM-13, po, 432 h, read-out: TGI
Mus musculus = experiment: In vivo inhibition of PRMT4 in nude BALB/c mouse xenografted with human MOLM13 cells assessed as reduction in PABP1 dimethylation at 100 mg/kg, po administered daily for 18 days measured 6 hrs post-last dose by Western blot analysis; assay type: functional, organism-based
[16] = Drug level in tumor of nude BALB/c mouse xenografted with human MOLM13 cells at 100 mg/kg, po administered daily for 18 days measured 6 hrs post-last dose by LC-MS/MS analysis; assay type: ADME, organism-based, Neoplasm; conditions: read-out: Drug uptake
[17] = Toxicity in nude BALB/c mouse xenografted with human MOLM13 cells assessed as visible changes at 100 mg/kg, po administered daily for 18 days; assay type: organism-based; conditions: in vivo, 432 h

Chain of Histone-lysine N-methyltransferase EZH2 (Homo sapiens) (Q15910 whole entry, looked up): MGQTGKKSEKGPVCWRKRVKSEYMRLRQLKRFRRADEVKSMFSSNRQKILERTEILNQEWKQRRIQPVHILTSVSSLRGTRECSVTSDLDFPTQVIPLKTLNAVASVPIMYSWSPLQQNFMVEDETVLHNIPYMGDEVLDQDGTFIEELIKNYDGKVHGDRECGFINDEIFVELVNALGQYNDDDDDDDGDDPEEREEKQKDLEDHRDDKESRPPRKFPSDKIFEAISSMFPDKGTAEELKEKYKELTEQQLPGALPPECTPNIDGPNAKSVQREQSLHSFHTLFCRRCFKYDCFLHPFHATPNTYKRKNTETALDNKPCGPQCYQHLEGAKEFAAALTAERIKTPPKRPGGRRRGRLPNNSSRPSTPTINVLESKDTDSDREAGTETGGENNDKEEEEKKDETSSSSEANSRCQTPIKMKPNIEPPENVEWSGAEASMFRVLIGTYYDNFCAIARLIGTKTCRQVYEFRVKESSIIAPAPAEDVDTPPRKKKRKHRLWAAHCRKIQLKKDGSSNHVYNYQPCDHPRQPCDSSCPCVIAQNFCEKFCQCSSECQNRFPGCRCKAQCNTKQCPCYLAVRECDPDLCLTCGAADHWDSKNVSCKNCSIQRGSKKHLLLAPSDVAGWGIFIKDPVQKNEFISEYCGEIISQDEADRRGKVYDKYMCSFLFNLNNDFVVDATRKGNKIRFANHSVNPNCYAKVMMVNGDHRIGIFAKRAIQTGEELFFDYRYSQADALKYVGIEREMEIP
Chain of Protein arginine N-methyltransferase 8 (Q9NR22 whole entry): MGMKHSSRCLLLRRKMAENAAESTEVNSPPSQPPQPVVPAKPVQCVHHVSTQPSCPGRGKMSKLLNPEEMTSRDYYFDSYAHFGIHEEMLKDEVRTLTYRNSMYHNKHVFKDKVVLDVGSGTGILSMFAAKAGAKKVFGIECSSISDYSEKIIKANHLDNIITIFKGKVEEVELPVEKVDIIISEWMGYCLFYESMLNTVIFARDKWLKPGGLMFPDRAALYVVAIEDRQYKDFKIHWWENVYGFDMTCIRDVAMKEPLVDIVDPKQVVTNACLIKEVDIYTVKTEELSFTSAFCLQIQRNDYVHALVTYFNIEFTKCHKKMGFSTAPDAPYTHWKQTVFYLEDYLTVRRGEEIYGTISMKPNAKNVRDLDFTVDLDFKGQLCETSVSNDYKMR
Chain of Histone-lysine N-methyltransferase, H3 lysine-79 specific (Homo sapiens) (Q8TEK3 whole entry, looked up): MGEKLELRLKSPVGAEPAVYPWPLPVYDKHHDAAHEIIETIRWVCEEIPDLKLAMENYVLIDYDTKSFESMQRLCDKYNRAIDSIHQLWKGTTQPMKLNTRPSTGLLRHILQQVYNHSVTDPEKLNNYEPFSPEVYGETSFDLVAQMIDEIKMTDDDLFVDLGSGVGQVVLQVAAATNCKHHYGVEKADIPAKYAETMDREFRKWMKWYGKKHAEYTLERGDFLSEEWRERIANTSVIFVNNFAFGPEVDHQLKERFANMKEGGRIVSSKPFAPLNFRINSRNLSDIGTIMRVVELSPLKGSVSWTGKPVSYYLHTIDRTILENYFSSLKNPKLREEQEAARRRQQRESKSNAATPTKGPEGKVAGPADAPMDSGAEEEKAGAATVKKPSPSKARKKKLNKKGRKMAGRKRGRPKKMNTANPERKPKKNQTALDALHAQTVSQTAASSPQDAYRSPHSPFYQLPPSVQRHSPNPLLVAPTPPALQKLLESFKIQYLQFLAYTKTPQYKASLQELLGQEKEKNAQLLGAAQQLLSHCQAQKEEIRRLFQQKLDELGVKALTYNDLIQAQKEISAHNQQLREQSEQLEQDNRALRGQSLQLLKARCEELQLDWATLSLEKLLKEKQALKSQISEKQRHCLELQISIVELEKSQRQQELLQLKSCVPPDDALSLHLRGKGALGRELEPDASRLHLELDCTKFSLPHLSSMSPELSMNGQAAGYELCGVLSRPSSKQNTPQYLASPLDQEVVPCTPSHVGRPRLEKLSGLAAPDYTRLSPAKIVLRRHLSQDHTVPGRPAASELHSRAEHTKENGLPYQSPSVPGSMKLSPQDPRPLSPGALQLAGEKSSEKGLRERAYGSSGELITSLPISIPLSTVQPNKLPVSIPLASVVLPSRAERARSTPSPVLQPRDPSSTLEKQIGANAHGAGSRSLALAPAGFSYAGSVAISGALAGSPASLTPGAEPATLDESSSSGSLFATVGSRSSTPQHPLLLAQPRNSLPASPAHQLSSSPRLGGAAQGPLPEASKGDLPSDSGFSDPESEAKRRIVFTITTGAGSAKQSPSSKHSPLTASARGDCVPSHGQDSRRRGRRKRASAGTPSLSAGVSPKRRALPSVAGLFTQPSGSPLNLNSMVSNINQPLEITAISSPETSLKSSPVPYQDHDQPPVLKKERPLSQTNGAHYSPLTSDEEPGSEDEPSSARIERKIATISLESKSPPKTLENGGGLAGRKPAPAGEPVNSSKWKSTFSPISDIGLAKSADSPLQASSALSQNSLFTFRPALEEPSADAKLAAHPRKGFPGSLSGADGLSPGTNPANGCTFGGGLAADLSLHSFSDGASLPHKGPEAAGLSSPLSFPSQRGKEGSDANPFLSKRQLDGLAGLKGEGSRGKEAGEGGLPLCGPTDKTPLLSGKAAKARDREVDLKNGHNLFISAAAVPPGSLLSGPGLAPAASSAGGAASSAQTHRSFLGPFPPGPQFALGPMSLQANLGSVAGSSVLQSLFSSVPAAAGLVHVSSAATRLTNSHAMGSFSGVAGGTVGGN

CNC[C@@H](O)CN1CCc2c(cccc2OCc2ccc(-c3nccs3)cc2)C1
IC50 [1]: 0.021 µM
IC50 [2]: 3.7 µM
inhibition [3]: inactive
inhibition [4]: inactive
Activity (MV4-11): Dose-dependent effect
IC50 (MOLM-13 [5]): 6.93 µM
Activity (MOLT-4): Dose-dependent effect
Ratio IC50 [6]: 10
Ratio IC50 [7]: 10
Activity (MOLM-13 [8]): Dose-dependent effect
clearance [9]: 44.9 mL/min/kg
half-life [10]: 12.1 h
AUC(0-inf) [11]: 1160 ng·h/mL
Tmax [12]: 8 h
AUC(0-t) [13]: 1410 ng·h/mL
concentration [14]: 120 nM
inhibition in vivo at 100 mg/kg (MOLM-13 [15]): 53.5%
inhibition (Mus musculus): Active
concentration at 6 h [16]: 80700 ng/g
Activity [17]: Non-Toxic
